Here are results for 8 molecules from PubChem BioAssay (NCI).

Among the test systems are MDA-MB-231 breast; HCT-15 colon; SF-539 CNS; NCI-H23 lung; SF-295 CNS; M14 melanoma; MOLT-4 leukemia; NCI-H226 lung; MCF7 breast; A498 renal.
Experiment in all cases: NCI anticancer screen, dose series, 48 h

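Five concentrations, 48 hours, 96-well plates. GI50 is the concentration that inhibits growth by half. TGI is the concentration that stops growth completely.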 A value given as a limit tells only on which side of the number the result lay.

Consider `O=C(N/N=C/c1ccc([N+](=O)[O-])o1)c1ccc(O)cc1`, for which the GI50 with MDA-MB-231 breast was 10.8 µM; in the test with HCT-15 colon, 4.06 µM; in the test on SF-539 CNS, 4.39 µM; in the test with NCI-H23 lung it was 2.97 µM; in the test with SF-295 CNS it was 4.26 µM; in the test on M14 melanoma it was 3.67 µM. Further, the GI50 was 5.69 µM in the test with MOLT-4 leukemia, 12.7 µM in the test with NCI-H226 lung and 2.84 µM in the test with MCF7 breast. For the same molecule, the TGI with MDA-MB-231 breast is > 100 µM; in the test with HCT-15 colon, 25.4 µM; in the test on SF-539 CNS, 17 µM; with NCI-H23 lung it was 11.4 µM; in the test on SF-295 CNS it was > 100 µM; in the test with M14 melanoma, 11.3 µM. Moreover, the results for the TGI with MOLT-4 leukemia, in the test on NCI-H226 lung and in the test on MCF7 breast were > 100 µM, > 100 µM and 14 µM, respectively.

Regarding `S=C1SC2=Nc3ccccc3CN2C2=NCCN12`, the GI50 with MDA-MB-231 breast is > 100 µM; in the test on HCT-15 colon, 33 µM; in the test on SF-539 CNS, > 100 µM; in the test with NCI-H23 lung it was > 100 µM; in the test on SF-295 CNS it was 83.5 µM; with M14 melanoma, > 100 µM. Further, the values for the GI50 with MOLT-4 leukemia, in the test with NCI-H226 lung and with MCF7 breast were 39.9 µM, > 100 µM and 51.5 µM, respectively. Moreover, the TGI with MDA-MB-231 breast, in the test on HCT-15 colon, in the test with SF-539 CNS, in the test on NCI-H23 lung, in the test on SF-295 CNS and in the test with M14 melanoma was > 100 µM in each case. The TGI in the test with MOLT-4 leukemia, in the test with NCI-H226 lung and with MCF7 breast was > 100 µM throughout.

Take `O=C(OCC(OC(=O)c1ccccc1)C(OC(=O)c1ccccc1)C(OC(=O)c1ccccc1)c1cnn(-c2ccccc2)n1)c1ccccc1` (stereo not drawn): the TGI in the test with HCT-15 colon, with SF-539 CNS, with NCI-H23 lung, in the test on A498 renal, in the test with SF-295 CNS and with M14 melanoma was > 100 µM throughout. The TGI in the test on MOLT-4 leukemia, in the test on NCI-H226 lung and in the test on MCF7 breast was > 100 µM in each case.

Regarding `Clc1cc(Cl)cc(Nc2ccc3cc(OCCCN4CCOCC4)ccc3n2)c1`, the GI50 with MDA-MB-231 breast is 1.81 µM; in the test with HCT-15 colon, 1.47 µM; with A498 renal, 1.93 µM; with SF-295 CNS it was 1.66 µM; in the test with MOLT-4 leukemia, 1.77 µM; in the test with NCI-H226 lung it was 3.76 µM. For the same molecule, the TGI in the test on MDA-MB-231 breast is 4.27 µM; in the test with HCT-15 colon it was 4.15 µM; with A498 renal, 8.78 µM; in the test with SF-295 CNS, 3.65 µM; in the test with MOLT-4 leukemia, 5.81 µM; with NCI-H226 lung it was > 100 µM.

As for `CO/N=C(/C)c1cccc(Nc2cc(-c3ccccc3)nc3ccc(OC)cc23)c1`, the GI50 with MDA-MB-231 breast was 3.49 µM; with HCT-15 colon, 14.9 µM; with SF-539 CNS it was 2.45 µM; in the test with NCI-H23 lung, 6.08 µM; in the test with SF-295 CNS it was 3.82 µM; with M14 melanoma, 6.92 µM. Besides, the results for the GI50 in the test with MOLT-4 leukemia, in the test on NCI-H226 lung and in the test on MCF7 breast were 3.05 µM, 15.7 µM and 5.71 µM, respectively. In addition, the TGI with MDA-MB-231 breast was found to be 17.8 µM; in the test with HCT-15 colon it was 41.1 µM; in the test on SF-539 CNS it was 4.89 µM; in the test on NCI-H23 lung, 27.4 µM; in the test with SF-295 CNS, 21.1 µM; in the test with M14 melanoma it was 25.3 µM. Besides, the TGI in the test with MOLT-4 leukemia was > 100 µM; in the test on NCI-H226 lung, 41 µM; in the test on MCF7 breast, 56.5 µM.

Take `CN1CCN(c2ccc(Nc3ncc4cc(C#N)c(=O)n(C5CCCC5)c4n3)cc2)CC1`: the GI50 in the test with HCT-15 colon was 0.94 µM; in the test on SF-539 CNS, 1.28 µM; in the test on A498 renal it was 0.199 µM; in the test with SF-295 CNS, 1.19 µM; in the test with M14 melanoma, 1.39 µM; in the test on MOLT-4 leukemia, 0.3 µM. The GI50 with NCI-H226 lung was 0.84 µM; with MCF7 breast, 0.346 µM. The TGI in the test on HCT-15 colon is > 100 µM; with SF-539 CNS, 3.27 µM; in the test on A498 renal it was 2.24 µM; in the test with SF-295 CNS it was > 42.6 µM; in the test on M14 melanoma, > 100 µM; in the test with MOLT-4 leukemia it was 3.17 µM. Also, the TGI in the test on NCI-H226 lung is 10.6 µM; with MCF7 breast, > 100 µM.

For `O=C1CSC(c2ccc(-c3nc4ccccc4s3)cc2)=N1`, the GI50 with MDA-MB-231 breast was 24.1 µM; in the test with HCT-15 colon, 51.9 µM; with SF-295 CNS it was 20.9 µM; in the test on M14 melanoma, 38.6 µM. Further, the TGI with MDA-MB-231 breast, in the test with HCT-15 colon, in the test on SF-295 CNS and with M14 melanoma was > 100 µM throughout.

As to `Clc1ccc(N=CNc2ccc(-c3nc4ccccc4o3)cc2)cc1`, the GI50 in the test on MDA-MB-231 breast is 25.6 µM; in the test on HCT-15 colon, 24.5 µM; in the test on SF-539 CNS, 14.8 µM; in the test with SF-295 CNS it was 19.4 µM; in the test with M14 melanoma, 56.4 µM; in the test with MOLT-4 leukemia, 60.7 µM. Further, in the test on NCI-H226 lung, the GI50 is 27.2 µM. The TGI in the test with MDA-MB-231 breast is 89.4 µM; in the test with HCT-15 colon, > 100 µM; in the test on SF-539 CNS, 45.7 µM; in the test on SF-295 CNS, 45.9 µM; in the test on M14 melanoma, > 100 µM; in the test on MOLT-4 leukemia it was > 100 µM. Further, the TGI with NCI-H226 lung is > 100 µM.
